Test results: patent US20090270435A1 (priority 2006, published 2009)
Counter-ions that a name gives are not always drawn.

These molecules were tested against T1, ACC1 from rat liver (Rattus norvegicus, UniProt P11497) (assay: Direct inhibition of ACC1 activity (14C-bicarbonate incorporation)). Conditions: ACC1 from rat liver.
T1 construct: The livers (for ACC1 preparation) or skeletal muscle tissue (for ACC2 preparation) are removed; from tissue; host or cells: liver of male CD rats (fasted, then fed a high sucrose diet)
Type: biochemical
Method in brief: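 ACC1 partially purified from livers of fasted/sucrose-refed male rats by PEG and ammonium sulfate fractionation, then preincubated 30 min at 37°C with 10 mM citrate and 1.0 mM MgCl2. Reaction ran 7 min at 37°C, stopped with HCl; acid-stable radioactivity counted by scintillation; HCl-first tubes served as blanks.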

Row | Structure (SMILES) | IC50
1 | Cc1cc2c(cc1C)C(=O)CC1(CCN(C(=O)c3ccc4c(c3)CCC(=O)N4)CC1)O2 [L44, 6,7-dimethyl-1′-[(2-oxo-1,2,3,4-tetrahydroquinolin-6-yl)carbonyl]spiro[chromene-2,4′-piperidin]-4(3H)-one] | < 3000 nM

Same assay, conditions: Table of Examples M1-M36

Row | Structure (SMILES) | IC50
2 | CS(=O)(=O)c1ccc2c(c1)C(=O)CC1(CCN(C(=O)c3cccc(-c4cc[nH]n4)c3)CC1)O2 [M20, 6-(methylsulfonyl)-1′-[3-(1H-pyrazol-3-yl)benzoyl]spiro[chromene-2,4′-piperidin]-4(3H)-one] | 434 nM
3 | Cc1cc2c(c(C)c1Cl)C(=O)CC1(CCN(C(=O)c3cccc(-c4cc[nH]n4)c3)CC1)O2 [M22, 6-chloro-5,7-dimethyl-1′-[3-(1H-pyrazol-3-yl)benzoyl]spiro[chromene-2,4′-piperidin]-4(3H)-one] | 452 nM

Same assay, conditions: Table of Examples P1-P15

Row | Structure (SMILES) | IC50
4 | Cc1cc2c(cc1C)C(=O)CC1(CCN(C(=O)c3cccc(-c4cc(C(F)(F)F)[nH]n4)c3)CC1)O2 [Ex. P1, 6,7-dimethyl-1′-{3-[5-(trifluoromethyl)-1H-pyrazol-3-yl]benzoyl}spiro-[chromene-2,4′-piperidin]-4(3H)-one] | 215 nM
5 | Cc1cc2c(cc1Cl)C(=O)CC1(CCN(C(=O)c3cccc(-c4cc(C(F)(F)F)[nH]n4)c3)CC1)O2 [Ex. P2, 6-chloro-7-methyl-1′-{3-[5-(trifluoromethyl)-1H-pyrazol-3-yl]benzoyl}spiro[chromene-2,4′-piperidin]-4(3H)-one trifluoroacetic acid salt] | 426 nM
6 | Cc1cc2c(cc1C)C(=O)CC1(CCN(C(=O)c3cc(-c4ccn(C)n4)ccc3Cl)CC1)O2 [Ex. P3, 1′-[2-chloro-5-(1-methyl-1H-pyrazol-3-yl)benzoyl]-6,7-dimethylspiro[chromene-2,4′-piperidin]-4(3H)-one] | < 3000 nM
7 | Cc1cc2c(cc1C)C(=O)CC1(CCN(C(=O)c3cc(-c4cc[nH]n4)ccc3F)CC1)O2 [Ex. P4, 1′-[2-fluoro-5-(1H-pyrazol-3-yl)benzoyl]-6,7-dimethylspiro[chromene-2,4′-piperidin]-4(3H)-one trifluoroacetic acid salt] | < 3000 nM
8 | Cc1cc2c(cc1C)C(=O)CC1(CCN(C(=O)c3cc(-c4cc[nH]n4)ccc3Cl)CC1)O2 [Ex. P5, 1′-[2-chloro-5-(1H-pyrazol-3-yl)benzoyl]-6,7-dimethylspiro[chromene-2,4′-piperidin]-4(3H)-one trifluoroacetic acid salt] | < 3000 nM
9 | Cc1cc2c(cc1C)C(=O)CC1(CCN(C(=O)c3cc(-c4cc[nH]n4)ccc3O)CC1)O2 [Ex. P6, 1′-[2-hydroxy-5-(1H-pyrazol-3-yl)benzoyl]-6,7-dimethylspiro[chromene-2,4′-piperidin]-4(3H)-one trifluoroacetic acid salt] | < 3000 nM
10 | CCOc1ccc(-c2cc[nH]n2)cc1C(=O)N1CCC2(CC1)CC(=O)c1cc(C)c(C)cc1O2 [Ex. P7, 1′-[2-ethoxy-5-(1H-pyrazol-3-yl)benzoyl]-6,7-dimethylspiro[chromene-2,4′-piperidin]-4(3H)-one trifluoroacetic acid salt] | < 3000 nM
11 | CCOc1ccc(-c2cc[nH]n2)cc1C(=O)N1CCC2(CC1)CC(=O)c1cc(C)c(C)cc1O2 [Ex. P8, 1′-[2-ethoxy-5-(1H-pyrazol-3-yl)benzoyl]-6,7-dimethylspiro[chromene-2,4′-piperidin]-4(3H)-one] | 621 nM
12 | CCOc1ccc(-c2cc[nH]n2)cc1C(=O)N1CCC2(CC1)CC(=O)c1cc(Cl)c(C)cc1O2 [Ex. P9, 6-chloro-1′-[2-ethoxy-5-(1H-pyrazol-3-yl)benzoyl]-7-methylspiro[chromene-2,4′-piperidin]-4(3H)-one] | 1060 nM
13 | Cc1cc2c(cc1C)C(=O)CC1(CCN(C(=O)c3cc(-c4ccnn4C)ccc3Cl)CC1)O2 [Ex. P10, 1′-[2-chloro-5-(1-methyl-1H-pyrazol-5-yl)benzoyl]-6,7-dimethylspiro[chromene-2,4′-piperidin]-4(3H)-one] | < 3000 nM
14 | Cc1cc2c(cc1C)C(=O)CC1(CCN(C(=O)c3cccc(-n4cccn4)c3)CC1)O2 [Ex. P11, 6,7-Dimethyl-1′-[3-(1H-pyrazol-1-yl)benzoyl]spiro[chromene-2,4′-piperidin]-4(3H)-one] | 399 nM
15 | Cc1cc2c(cc1C)C(=O)CC1(CCN(C(=O)c3cccc(-c4ncc[nH]4)c3)CC1)O2 [Ex. P12, 1′-[3-(1H-imidazol-2-yl)benzoyl]-6,7-dimethylspiro[chromene-2,4′-piperidin]-4(3H)-one trifluoroacetic acid salt] | 73.9 nM
16 | Cc1cc2c(cc1C)C(=O)CC1(CCN(C(=O)c3cccc(-c4ccncn4)c3)CC1)O2 [Ex. P13, 6,7-Dimethyl 1′-[3-(pyrimidin-4-yl)benzoyl]spiro[chromene-2,4′-piperidin]-4(3H)-one] | < 3000 nM
17 | Cc1nc(-c2cccc(C(=O)N3CCC4(CC3)CC(=O)c3cc(C)c(C)cc3O4)c2)no1 [Ex. P14, 6,7-Dimethyl-1′-[3-(5-methyl-1,2,4-oxadiazol-3-yl)benzoyl]spiro[chromene-2,4′-piperidin]-4(3H)-one] | < 3000 nM
18 | CCc1nc(-c2cccc(C(=O)N3CCC4(CC3)CC(=O)c3cc(C)c(C)cc3O4)c2)no1 [Ex. P15, 6,7-Dimethyl-1′-[3-(5-ethyl-1,2,4-oxadiazol-3-yl)benzoyl]spiro[chromene-2,4′-piperidin]-4(3H)-one] | 7030 nM
